Data reported in ChEMBL document CHEMBL2384920, “Ester prodrugs of acyclic nucleoside thiophosphonates compared to phosphonates: synthesis, antiviral activity and decomposition study” (Eur J Med Chem, 2013).
Active and inactive are the calls of the source. The rule behind the calls is not given here.

Legend:
[1] = Prodrug conversion assessed as snake venome phosphodiesterase-mediated (R)-9-[2-(Thiophosphonomethoxy)propyl]adenine disodium salt formation at 5 mM; assay type: ADME; settings: crotalus adamanteus, 5000 µM
[2] = Cytotoxicity against human HEL cells assessed as effect on cell morphology; assay type: cell-based
Vaccinia virus [3] = assay: Antiviral activity against Vaccinia virus infected in human HEL cells assessed as reduction of virus-induced cytopathicity at 200 uM measured at day 3 by microscopic analysis; assay type: functional, organism-based; settings: Orthopoxvirus vaccinia
[4] = Prodrug conversion assessed as snake venome phosphodiesterase-mediated thiophosphonate monoester formation at 5 mM; assay type: ADME; settings: crotalus adamanteus, 5000 µM
Vaccinia virus [5] = assay: Antiviral activity against Vaccinia virus infected in human HEL cells assessed as reduction of virus-induced cytopathicity measured at day 3 by microscopic analysis; assay type: functional, organism-based; settings: Orthopoxvirus vaccinia, 72 h
Human alphaherpesvirus 2 = assay: Antiviral activity against Human simplex virus 2 G infected in human HEL cells assessed as reduction of virus-induced cytopathicity measured at day 3 by microscopic analysis; assay type: functional, organism-based; settings: Human alphaherpesvirus 2, strain G, 72 h
Human alphaherpesvirus 1 [6] = assay: Antiviral activity against thymidine kinase-deficient Human simplex virus 1 KOS infected in human HEL cells assessed as reduction of virus-induced cytopathicity measured at day 3 by microscopic analysis; assay type: functional, organism-based; settings: Human alphaherpesvirus 1, KOS, 72 h
[7] = Cytotoxicity against mock-infected human CEM cells assessed as growth inhibition; assay type: cell-based, CCRF-CEM
Human alphaherpesvirus 1 [8] = assay: Antiviral activity against Human simplex virus 1 KOS infected in human HEL cells assessed as reduction of virus-induced cytopathicity measured at day 3 by microscopic analysis; assay type: functional, organism-based; settings: Human alphaherpesvirus 1, KOS, 72 h
[9] = test system: Human immunodeficiency virus 2; assay: Antiviral activity against wild type HIV-2 ROD infected in human CEM cells assessed as inhibition of syncytia formation after 4 days by microscopic analysis; assay type: functional, organism-based; settings: Human immunodeficiency virus 2, ISOLATE ROD, CCRF-CEM, 96 h
[10] = test system: Human immunodeficiency virus 1; assay: Antiviral activity against wild type HIV-1 3B infected in human CEM cells assessed as inhibition of syncytia formation after 4 days by microscopic analysis; assay type: functional, organism-based; settings: Human immunodeficiency virus 1, 3B, CCRF-CEM, 96 h
Hepatitis B virus = assay: Antiviral activity against wild type HBV transfected in human HuH7 cells assessed as reduction of viral DNA level after 7 days by qPCR analysis; assay type: functional, organism-based; settings: Huh-7, 168 h
[11] = Cytotoxicity against human HuH7 cells assessed as reduction of cell density; assay type: cell-based, Huh-7
[12] = Prodrug conversion assessed as snake venome phosphodiesterase-mediated PMPA formation at 5 mM; assay type: ADME; settings: crotalus adamanteus, 5000 µM
[13] = Half life of the compound in presence of carboxyesterase; assay type: physicochemical
[14] = Prodrug conversion assessed as snake venome phosphodiesterase-mediated PMEA formation at 5 mM; assay type: ADME; settings: crotalus adamanteus, 5000 µM
[15] = Prodrug conversion assessed as snake venome phosphodiesterase-mediated phosphonate monoester formation at 5 mM; assay type: ADME; settings: crotalus adamanteus, 5000 µM
[16] = Stability of the compound in DMEM assessed as half life of first step of hydrolysis; assay type: physicochemical
[17] = Stability of the compound in RPMI-1640 assessed as half life of first step of hydrolysis; assay type: physicochemical

Row | Compound | MCC [2] | EC50 (Vaccinia virus [5]) | EC50 (Human alphaherpesvirus 2) | EC50 (Human alphaherpesvirus 1 [6]) | CC50 [7] | EC50 (Human alphaherpesvirus 1 [8]) | EC50 [9] | EC50 [10] | EC50 (Hepatitis B virus) | CC50 [11] | other results
1 | CC(C)OC(=O)OCOP([O-])(=S)CO[C@H](C)Cn1cnc2c(N)ncnc21.[Na+] (some centres undefined) | – | – | – | – | – | – | – | – | – | – | Drug metabolism [1]: Active
2 | Nc1ccn(C[C@@H](CO)OCP(=O)(O)O)c(=O)n1 [CIDOFOVIR] | > 250 µM | – | – | – | – | – | – | – | – | – | –
3 | Nc1ncnc2c1ncn2CCOCP(=O)(O)S (centres undefined) | – | – | – | – | – | – | – | – | – | – | Activity (Vaccinia virus [3]): Active
4 | Nc1ncnc2c1ncn2CCOCP(=O)(O)O | – | – | – | – | – | – | – | – | – | – | Activity (Vaccinia virus [3]): inactive
5 | CC(C)OC(=O)OCOP(=S)(CO[C@H](C)Cn1cnc2c(N)ncnc21)OCOC(=O)OC(C)C | > 50 µM | > 50000 nM | > 50000 nM | > 50000 nM | > 25000 nM | > 50000 nM | 130 nM | 92 nM | 1140 nM | > 25000 nM | Drug metabolism [4]: Active
6 | CC(C)(C)C(=O)OCOP(=S)(COCCn1cnc2c(N)ncnc21)OCOC(=O)C(C)(C)C | > 50 µM | 29000 nM | 3900 nM | 3900 nM | 2000 nM | 3900 nM | ≥ 200 nM | ≥ 200 nM | 1450 nM | > 25000 nM | Drug metabolism [4]: Active
7 | CC(C)OC(=O)OCOP(=O)([O-])CO[C@H](C)Cn1cnc2c(N)ncnc21.[Na+] | – | – | – | – | – | – | – | – | – | – | Drug metabolism [12]: Active; half-life [13]: > 7 h
8 | CC(C)(C)C(=O)OCOP(=O)([O-])COCCn1cnc2c(N)ncnc21.[Na+] | – | – | – | – | – | – | – | – | – | – | Drug metabolism [14]: Active
9 | CC(C)(C)C(=O)OCOP(=O)(COCCn1cnc2c(N)ncnc21)OCOC(=O)C(C)(C)C [ADEFOVIR DIPIVOXIL] | > 50 µM | 4000 nM | 200 nM | 200 nM | 1600 nM | 200 nM | 62 nM | 45 nM | 830 nM | > 25000 nM | Drug metabolism [15]: Active; half-life [16]: 1 h; half-life [13]: > 7 h; half-life [17]: 1 h
10 | CC(C)OC(=O)OCOP(=O)(CO[C@H](C)Cn1cnc2c(N)ncnc21)OCOC(=O)OC(C)C [TENOFOVIR DISOPROXIL] | > 50 µM | > 50000 nM | 5800 nM | 9600 nM | > 25000 nM | 5800 nM | 13 nM | 16 nM | 880 nM | > 25000 nM | Drug metabolism [15]: Active; half-life [16]: 1 h; half-life [17]: 1 h
11 | Nc1nc2c(ncn2COCCO)c(=O)[nH]1 [ACYCLOVIR] | > 250 µM | > 250000 nM | – | 29000 nM | – | – | – | – | – | – | –
